Among the data in ChEMBL document CHEMBL3526096, “Species differences in biliary clearance and possible relevance of hepatic uptake and efflux transporters involvement” (Drug Metab Dispos, 2013) are CL free, CL and dose excreted values, retold here.

For series [1], the system named is Canis familiaris. The experiment in a line: Unbound biliary clearance in iv dosed dog. The conditions noted are these: in vivo. Type of series: ADME, organism-based, Canis lupus familiaris, Bile.
For series [2], the system named is Rattus norvegicus. As to the kind of experiment: Unbound biliary clearance in iv dosed Sprague-Dawley rat. Particulars: in vivo. Type of series: ADME, organism-based, Bile.
The subject of series [3] is Homo sapiens. As to the kind of experiment: Total biliary clearance in human at 1 nmol/l, iv after 8 hrs by duodenal perfusion method. Format: ADME, organism-based, Bile. Particulars: in vivo.
Series [4] is described as follows: Drug excretion in iv dosed dog assessed as compound excreted into bile. Type of series: ADME, organism-based, Canis lupus familiaris. The conditions noted are these: read-out: Drug excretion.
Series [5] is described as follows: Drug excretion in human assessed as compound excreted into bile at 1 nmol/l, iv after 8 hrs. Type of series: ADME, organism-based. Particulars: read-out: Drug excretion.
Series [6] concerns Canis familiaris. The experiment in a line: Total biliary clearance in iv dosed dog. Format: ADME, organism-based, Canis lupus familiaris, Bile. The conditions noted are these: in vivo.
Series [7] is described as follows: Drug excretion in iv dosed Sprague-Dawley rat assessed as compound excreted into bile. Type of series: ADME, organism-based. The conditions noted are these: read-out: Drug excretion.
Series [8] relates to Rattus norvegicus. The experiment in a line: Total biliary clearance in iv dosed Sprague-Dawley rat. Format: ADME, organism-based, Bile. Particulars: in vivo.
Series [9] relates to Homo sapiens. As to the kind of experiment: Unbound biliary clearance in human at 1 nmol/l, iv after 8 hrs. Type of series: ADME, organism-based, Bile. The conditions noted are these: in vivo.
Series [10] in a line: Drug excretion in iv dosed rat assessed as compound excreted into bile. The conditions noted are these: read-out: Drug excretion. Type of series: ADME, organism-based.
Series [11] concerns Homo sapiens. The experiment in a line: Unbound biliary clearance in iv dosed human after 24 hrs by T-tube method. Format: ADME, organism-based, Bile. The conditions noted are these: in vivo.
Series [12] has as its system Homo sapiens. As to the kind of experiment: Total biliary clearance in iv dosed human after 24 hrs by T-tube method. The conditions noted are these: in vivo. Type of series: ADME, organism-based, Bile.
Series [13] in a line: Drug excretion in Sprague-Dawley rat assessed as compound excreted into bile at 5 mg/kg, iv. Format: ADME, organism-based. Further details: dose 5 mg/kg, route intravenous. Particulars: read-out: Drug excretion.
Series [14] can be described thus: Drug excretion in iv dosed human assessed as compound excreted into bile after 24 hrs by T-tube method. Format: ADME, organism-based. Particulars: read-out: Drug excretion.
The test system of series [15] is Rattus norvegicus. The experiment in a line: Total biliary clearance in Sprague-Dawley rat at 5 mg/kg, iv. Type of series: ADME, organism-based, Bile. The conditions noted are these: in vivo. Further details: dose 5 mg/kg, route intravenous.
In series [16] the test system is Rattus norvegicus. The experiment in a line: Unbound biliary clearance in Sprague-Dawley rat at 5 mg/kg, iv. Format: ADME, organism-based, Bile. Further details: dose 5 mg/kg, route intravenous. Particulars: in vivo.
A short description of series [17]: Drug excretion in iv dosed human assessed as compound excreted into bile after 72 hrs by T-tube method. The conditions noted are these: read-out: Drug excretion. Format: ADME, organism-based.
In series [18] the test system is Homo sapiens. The experiment in a line: Total biliary clearance in iv dosed human after 72 hrs by T-tube method. Format: ADME, organism-based, Bile. Particulars: in vivo.
For series [19], the system named is Homo sapiens. As to the kind of experiment: Unbound biliary clearance in iv dosed human after 72 hrs by T-tube method. Format: ADME, organism-based, Bile. Particulars: in vivo.
The test system of series [20] is Rattus norvegicus. The experiment in a line: Unbound biliary clearance in iv dosed rat. Type of series: ADME, organism-based, Bile. The conditions noted are these: in vivo.
The test system of series [21] is Rattus norvegicus. As to the kind of experiment: Total biliary clearance in iv dosed rat. Format: ADME, organism-based, Bile. Particulars: in vivo.
Series [22] is described as follows: Drug excretion in human assessed as compound excreted into bile at 2 gm, iv after 24 hrs by T-tube method. Type of series: ADME, organism-based. The conditions noted are these: read-out: Drug excretion.
Series [23] deals with Canis familiaris. The experiment in a line: Total biliary clearance in beagle dog at 20 mg/kg, iv. Format: ADME, organism-based, Canis lupus familiaris, Bile. Details: dose 20 mg/kg, route intravenous. Particulars: in vivo.
Series [24] in a line: Drug excretion in Sprague-Dawley rat assessed as compound excreted into bile at 20 mg/kg, iv. Format: ADME, organism-based. Particulars: read-out: Drug excretion. Details: dose 20 mg/kg, route intravenous.
A short description of series [25]: Drug excretion in beagle dog assessed as compound excreted into bile at 20 mg/kg, iv. Format: ADME, organism-based, Canis lupus familiaris. Details: dose 20 mg/kg, route intravenous. Particulars: read-out: Drug excretion.
In series [26] the test system is Canis familiaris. As to the kind of experiment: Unbound biliary clearance in beagle dog at 20 mg/kg, iv. Particulars: in vivo. Details: dose 20 mg/kg, route intravenous. Format: ADME, organism-based, Canis lupus familiaris, Bile.
For series [27], the system named is Homo sapiens. The experiment in a line: Unbound biliary clearance in human at 1 gm, iv after 24 hrs by T-tube method. Format: ADME, organism-based, Bile. The conditions noted are these: in vivo.
Series [28] concerns Homo sapiens. The experiment in a line: Total biliary clearance in human at 1 gm, iv after 24 hrs by T-tube method. Type of series: ADME, organism-based, Bile. The conditions noted are these: in vivo.
The nature of series [29]: Drug excretion in human assessed as compound excreted into bile at 1 gm, iv after 24 hrs by T-tube method. Type of series: ADME, organism-based. The conditions noted are these: read-out: Drug excretion.
Series [30] has as its system Rattus norvegicus. The experiment in a line: Unbound biliary clearance in Sprague-Dawley rat at 20 mg/kg, iv. Further details: dose 20 mg/kg, route intravenous. Format: ADME, organism-based, Bile. The conditions noted are these: in vivo.
The test system of series [31] is Rattus norvegicus. The experiment in a line: Total biliary clearance in Sprague-Dawley rat at 20 mg/kg, iv. Type of series: ADME, organism-based, Bile. Further details: dose 20 mg/kg, route intravenous. Particulars: in vivo.
Series [32] can be described thus: Drug excretion in iv dosed human assessed as compound excreted into bile after 8 hrs by T-tube method. Type of series: ADME, organism-based. The conditions noted are these: read-out: Drug excretion.
In series [33] the test system is Homo sapiens. The experiment in a line: Total biliary clearance in iv dosed human after 8 hrs by T-tube method. Format: ADME, organism-based, Bile. The conditions noted are these: in vivo.
The test system of series [34] is Homo sapiens. The experiment in a line: Unbound biliary clearance in iv dosed human after 8 hrs by T-tube method. Format: ADME, organism-based, Bile. Particulars: in vivo.
The subject of series [35] is Rattus norvegicus. As to the kind of experiment: Total biliary clearance in iv dosed Wistar rat. Type of series: ADME, organism-based, Bile. The conditions noted are these: in vivo.
Series [36] can be described thus: Drug excretion in iv dosed Wistar rat assessed as compound excreted into bile. Format: ADME, organism-based. The conditions noted are these: read-out: Drug excretion.
The test system of series [37] is Rattus norvegicus. As to the kind of experiment: Unbound biliary clearance in iv dosed Wistar rat. Format: ADME, organism-based, Bile. Particulars: in vivo.
Series [38] in a line: Drug excretion in human assessed as compound excreted into bile. Particulars: read-out: Drug excretion. Type of series: ADME.

Structures are written as SMILES.

Take `C[C@H]1O[C@@H](O[C@H]2[C@@H](O)C[C@H](O[C@H]3[C@@H](O)C[C@H](O[C@H]4CC[C@@]5(C)[C@H](CC[C@@H]6[C@@H]5C[C@@H](O)[C@]5(C)[C@@H](C7=CC(=O)OC7)CC[C@]65O)C4)O[C@@H]3C)O[C@@H]2C)C[C@H](O)[C@@H]1O` [DIGOXIN]: the CL free in the series with Canis familiaris [1] is 2.68 mL/min/kg; with Rattus norvegicus [2] it was 4.329 mL/min/kg; with Homo sapiens [9] it was 2.279 mL/min/kg. Besides, the CL in the series on Homo sapiens [3] is 1.595 mL/min/kg; with Canis familiaris [6], 1.313 mL/min/kg; in the series on Rattus norvegicus [8] it was 3.03 mL/min/kg. Moreover, the dose excreted in [4] turned out to be 7%; in series [7], 31%. Besides, the dose excreted at 8 h in series [5] was 41%.

As to `CC1=C(C(=O)O)N2C(=O)[C@@H](NC(=O)[C@H](N)c3ccccc3)[C@H]2SC1` [CEPHALEXIN ANHYDROUS], the dose excreted in [10] stood at 32%.

As for `COc1cccc2c1C(=O)c1c(O)c3c(c(O)c1C2=O)C[C@@](O)(C(=O)CO)C[C@@H]3O[C@H]1C[C@H](N)[C@H](O)[C@H](C)O1` [DOXORUBICIN], the values for the CL free in the series on Canis familiaris [1], in the series with Homo sapiens [11] and with Rattus norvegicus [16] were 5.059 mL/min/kg, 7.268 mL/min/kg and 10.82 mL/min/kg, respectively. Also, the CL came out at 2.035 mL/min/kg in the series with Homo sapiens [12], 1.72 mL/min/kg with Canis familiaris [6] and 3.68 mL/min/kg in the series on Rattus norvegicus [15]. Besides, the dose excreted in series [13] was 17%; in [4], 10%. The dose excreted at 24 h in [14] was found to be 14%.

With `CC[C@]1(O)C[C@H]2CN(CCc3c([nH]c4ccccc34)[C@@](C(=O)OC)(c3cc4c(cc3OC)N(C=O)[C@H]3[C@@](O)(C(=O)OC)[C@H](OC(C)=O)[C@]5(CC)C=CCN6CC[C@]43[C@@H]65)C2)C1` [VINCRISTINE], the dose excreted at 72 h in series [17] was determined as 10%. Moreover, the CL free in the series on Rattus norvegicus [2] was found to be 84.87 mL/min/kg; in the series on Homo sapiens [19], 0.523 mL/min/kg. The values for the CL in the series on Homo sapiens [18] and in the series on Rattus norvegicus [8] were 0.209 mL/min/kg and 33.1 mL/min/kg, respectively. In series [7], the dose excreted worked out at 43%.

Consider `CN(Cc1cnc2nc(N)nc(N)c2n1)c1ccc(C(=O)N[C@@H](CCC(=O)O)C(=O)O)cc1` [METHOTREXATE], for which the values for the CL free with Canis familiaris [1], with Homo sapiens [11] and with Rattus norvegicus [20] were 0.344 mL/min/kg, 1.108 mL/min/kg and 12.47 mL/min/kg, respectively. The CL with Homo sapiens [12] worked out at 0.048 mL/min/kg; in the series with Canis familiaris [6], 0.217 mL/min/kg; in the series with Rattus norvegicus [21] it was 9.6 mL/min/kg. For the same molecule, the dose excreted at 24 h in series [14] was determined as 10%. Also, in series [10], the dose excreted is 64%.

With `CCN1CCN(C(=O)N[C@@H](C(=O)N[C@@H]2C(=O)N3C(C(=O)O)=C(CSc4nnnn4C)CS[C@H]23)c2ccc(O)cc2)C(=O)C1=O` [CEFOPERAZONE], in series [22], the dose excreted at 24 h was 12%. In addition, in series [10], the dose excreted came to 86%.

Turning to `Cc1cc(O)c(C(=O)N[C@@H](C(=O)N[C@@H]2C(=O)N3C(C(=O)O)=C(CSc4nnnn4C)CS[C@H]23)c2ccc(O)cc2)cn1` [CEFPIRAMIDE], the CL was found to be 0.979 mL/min/kg in the series on Canis familiaris [23], 2.4 mL/h/kg with Homo sapiens [28] and 5.22 mL/min/kg in the series with Rattus norvegicus [31]. Further, the dose excreted in series [24] came out at 58%; in series [25], 19%. Further, the CL free was found to be 1.399 mL/min/kg with Canis familiaris [26], 1 mL/min/kg with Homo sapiens [27] and 9.667 mL/min/kg in the series on Rattus norvegicus [30]. Moreover, the dose excreted at 24 h in [29] came to 28%.

Consider `O=C([O-])Cc1ccccc1Nc1c(Cl)cccc1Cl.[Na+]` [DICLOFENAC SODIUM], for which, in series [32], the dose excreted at 8 h is 1%. Also, the results for the CL in the series with Homo sapiens [33] and in the series on Rattus norvegicus [35] were 2.52 mL/h/kg and 0.85 mL/min/kg, respectively. Further, the figures for the CL free in the series on Homo sapiens [34] and in the series on Rattus norvegicus [37] were 8.4 mL/min/kg and 94.44 mL/min/kg, respectively. The dose excreted in series [36] worked out at 5%.

In the case of `N=C(N)N1CCC[C@@H](CNC(=O)C[C@H](NS(=O)(=O)c2ccc3ccccc3c2)C(=O)N(CC(=O)O)C2CC2)C1` [NAPSAGATRAN ANHYDROUS], the dose excreted worked out at 97% in series [4], 60% in series [38] and 61% in series [10].
